# Tests used:
# Type in all cases: cell-based, human
# [1] = test system: senescent HGPS skin fibroblast; test: Senolysis in HGPS skin fibroblasts (viability, β-galactosidase staining); conditions: 48h
# Protocol: All human cancer cell lines and the non-transformed fibroblast lines were maintained in a humidified incubator at 37°C and 5% CO2 and used between passages 4 and 15. All lines were frequently checked and ensured to be mycoplasma free. Cells were split twice a week and before archiving an 90% confluency. SKMel103, SH-SY5Y, Huh7, A549, U251 were donated from collaborators or obtained from the Translational Venomics' stock. Primary lung fibroblasts (PCS201013) and primary dermal fibroblasts (PCS201012) were purchased from ATCC (Manassas, VA, USA). Skin fibroblasts from Hutchinson-Gilford progeria syndrome donors were purchase from the Progeria Research Foundation (HGADFN 127, 143, 167, 178) or Coriell Institute (AG01972E, AG06917K and AG11513F). The cells were maintained following the recommendations of the cell banks.
# Cells were plated in 96 well plates at a density of 3×10^3-8×10^3 cells/well (proliferative) or 8×10^3-10×10^3 cells/well (senescent). An MTT assay (Sigma-Aldrich, Merck KGaA, Darmstadt, Germany) was used to measure cell viability after 48-96 h of treatments. […] Absorbance was measured at 570 nm using a microplate reader (Victor Nivo; Perkin Elmer, Hamburg, Germany). For these assays, the effects of vehicle or treatments were expressed as the % of change of the non-treated cells. […]
# SKMel-103 cells = test: MTT cell viability assay in proliferative and palbociclib-induced senescent SKMel-103 cells
# Protocol: (§1) Cells were plated in 96 well plates at a density of 3×10^3-8×10^3 cells/well (proliferative) or 8×10^3-10×10^3 cells/well (senescent). An MTT assay (Sigma-Aldrich, Merck KGaA, Darmstadt, Germany) was used to measure cell viability after 48-96 h of treatments. Briefly, MTT was diluted in 0.1 M phosphate buffered saline (PBS) and added to cells grown in 96-well plates at a final concentration of 0.5 mg/ml. After incubation for 2-4 hr at 37°C with MTT, the culture medium was removed. The precipitated formazan was solubilized with dimethyl sulfoxide (DMSO). Absorbance was measured at 570 nm using a microplate reader (Victor Nivo; Perkin Elmer, Hamburg, Germany). For these assays, the effects of vehicle or treatments were expressed as the % of change of the non-treated cells.
# Therefore, the MTT assay was used to measure cell viability in proliferative and senescent cells. The model of cellular senescence induced by cyclin-dependent kinases (CDK) inhibition with Palbociclib (Baughn, L. B., et al. A Novel Orally Active Small Molecule Potently Induces G1 Arrest in Primary Myeloma Cells and Prevents Tumor Growth by Specific Inhibition of Cyclin-Dependent Kinase 4/6. Cancer Research (2006), 66(15), 7661-7667; Fry, D. W. et al. Specific inhibition of cyclin-dependent kinase 4/6 by PD 0332991 and associated antitumor activity in human tumor xenografts. Molecular Cancer Therapeutics, (2004) 3(11), 1427-1438) was used. Palbociclib is a CDK inhibitor, which promotes many markers of cellular senescence (Klein, M. E., et al. CDK4/6 Inhibitors: The Mechanism of Action May Not Be as Simple as Once Thought. Cancer Cell, (2018) 34(1), 9-20; Llanos, S., et al. Lysosomal trapping of palbociclib and its functional implications. Oncogene, (2019) 38(20), 3886-3902), including an enlarged and flattened cell shape and an enhanced senescence-associated β-galactosidase (SA-β-gal) activity (Figure 1A). Treatment with increasing concentrations of Tvs1 (0.1 nM to 3 µM) led to a dose-dependent reduction in viability of SKMel103 cells (Figure 1B). […]
# [2] = test system: SKMel-103, A549, Huh7, SH-SY5Y cells; test: MTT cell viability in different models of cellular senescence and cancer cell lines; conditions: senescent cancerous cell lines, senescence by doxorubicin, bleomycin or palbociclib
# Protocol: as §1
# Next, it was evaluated the senolytic capacity of Tvs1 in different models of cellular senescence and cancer cell lines. For that purpose, chemotherapy known to induce cellular senescence by genotoxic damage (doxorubicin and bleomycin) or by inhibiting cyclin-dependent kinases (palbociclib) was used. Cellular models of melanoma, lung adenocarcinoma (A549), hepatoma (Huh7) and neuroblastoma (SH-SY5Y) were used. Tvs1G consistently produced a senolytic effect in all the cancerous cell lines tested independently of the stimulus for achieving cellular senescence (Figure 2, Figures 4F, 4G, 4H). […]
Structure (SMILES),senolysis / viability [1],"EC50 (SKMel-103 cells; Homo sapiens, SK-MEL-103, palbociclib-induced senescent SKMel-103 cells, 48h treatment, read-out: EC50 (senolytic potency)) [nM]","SI (SKMel-103 cells; senolytic index, ratio of the IC50 in proliferative and senescent cells)",senolytic effect (SKMel-103 cells; tested senescent melanoma cells),senolytic effect [2]
CC1(C)CCC(c2ccc(Cl)cc2)=C(CN2CCN(c3ccc(C(=O)NS(=O)(=O)c4ccc(N[C@H](CCN5CCOCC5)CSc5ccccc5)c(S(=O)(=O)C(F)(F)F)c4)cc3)CC2)C1 [navitoclax],failed,400,22,–,–
C[C@H]1O[C@@H](O[C@H]2[C@@H](O)C[C@H](O[C@H]3[C@@H](O)C[C@H](O[C@H]4CC[C@@]5(C)[C@H](CC[C@@H]6[C@@H]5C[C@@H](O)[C@]5(C)[C@@H](C7=CC(=O)OC7)CC[C@]65O)C4)O[C@@H]3C)O[C@@H]2C)C[C@H](O)[C@@H]1O [digoxin],failed,–,–,not effective,–
"O=c1c(O)c(-c2ccc(O)c(O)c2)oc2cc(O)ccc12 [F, fisetin]",–,–,–,–,failed
"O=c1c(O)c(-c2ccc(O)c(O)c2)oc2cc(O)cc(O)c12 [Q, quercetin]",–,–,–,–,failed

# From patent EP4491190A1, “SMALL PROTEINS FOR USE AS SENOLYTIC AND SENOMORPHIC AGENTS” (Fundación Imdea Alimentación, priority 2023, dated 2025)
